Data: PubChem BioAssay AID328 (DTP/NCI, 2004)
Inconclusive results and toxic doses are left out. How the source made its calls: active means survival T/C of 150% or more; inactive means T/C below 125% in these data.

Test system: BDF1 mice, P388 leukemia ip, median survival T/C
Assay: NCI In Vivo Anticancer Drug Screen. Data for tumor model P388 Leukemia (intraperitoneal) in B6D2F1 (BDF1) mice
Conditions: endpoint: median survival time, higher = longer survival
Procedure, shortened: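 Steps: implant the tumour, treat one group with compound and another with vehicle, record survival, then divide treated by control.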

[1] = dose: 100.0 mg/kg/injection, schedule: Q04DX003 (ip), vehicle: Klucel (hydroxypropylcellulose) (HPC)
[2] = dose: 50.0 mg/kg/injection, schedule: Q01DX009 (ip), vehicle: saline with Tween-80
[3] = dose: 100.0 mg/kg/injection, schedule: Q01DX009 (ip), vehicle: saline with Tween-80
[4] = dose: 200.0 mg/kg/injection, schedule: Q01DX009 (ip), vehicle: saline with Tween-80
[5] = dose: 100.0 mg/kg/injection, schedule: Q04DX003 (ip), vehicle: saline with Tween-80
[6] = dose: 200.0 mg/kg/injection, schedule: Q04DX003 (ip), vehicle: saline with Tween-80
[7] = dose: 400.0 mg/kg/injection, schedule: Q01DX009 (ip), vehicle: saline with Tween-80
[8] = dose: 400.0 mg/kg/injection, schedule: Q04DX003 (ip), vehicle: saline with Tween-80
[9] = dose: 50.0 mg/kg/injection, schedule: Q04DX003 (ip), vehicle: saline with Tween-80

Measured: T/C

C=C1C(=O)OC2C1CCC(=C)C1CC(O)C(=C)C12 (stereo not drawn)
inactive: dose: 7.4 mg/kg/injection, schedule: Q01DX009 (ip), vehicle: saline with Tween-80 91 % of control | dose: 11.0 mg/kg/injection, schedule: Q01DX009 (ip), vehicle: saline with Tween-80 104 % of control | dose: 16.0 mg/kg/injection, schedule: Q01DX009 (ip), vehicle: saline with Tween-80 91 % of control | dose: 25.0 mg/kg/injection, schedule: Q01DX009 (ip), vehicle: saline with Tween-80 100 % of control

CCCCN1C(=O)C2CC=C3C=CN4C(C3C2C1=O)C1C(=O)N(CCCC)C(=O)C1C41CC(=O)N(CCCC)C1=O (stereo not drawn)
inactive: dose: 50.0 mg/kg/injection, schedule: Q01DX009 (ip), vehicle: Klucel (hydroxypropylcellulose) (HPC) 104 % of control | dose: 100.0 mg/kg/injection, schedule: Q01DX009 (ip), vehicle: Klucel (hydroxypropylcellulose) (HPC) 100 % of control | [1] 100 % of control | dose: 200.0 mg/kg/injection, schedule: Q01DX009 (ip), vehicle: Klucel (hydroxypropylcellulose) (HPC) 90 % of control | dose: 200.0 mg/kg/injection, schedule: Q04DX003 (ip), vehicle: Klucel (hydroxypropylcellulose) (HPC) 91 % of control

CC(C)(C)c1ccc(Sc2cccc3c2C(=O)c2ccccc2C3)cc1
inactive: [2] 92 % of control | [3] 89 % of control | [4] 89 % of control

CCOC(=O)C12CC=CC(CCC1)C2=O (stereo not drawn) (tested in a mixture with another compound)
inactive: [3] 100 % of control | [5] 90 % of control | [4] 104 % of control | [6] 95 % of control | [7] 90 % of control | [8] 104 % of control

N=C1CCCC1C(=S)SCCC(N)=O (stereo not drawn)
inactive: [2] 99 % of control | [3] 99 % of control | [4] 94 % of control

CCCCN(CCCC)CC(O)c1ccnc2cc3c(cc12)OCO3 (stereo not drawn)
inactive: dose: 25.0 mg/kg/injection, schedule: Q01DX001 (ip), vehicle: Klucel (hydroxypropylcellulose) (HPC) 104 % of control | dose: 50.0 mg/kg/injection, schedule: Q01DX001 (ip), vehicle: Klucel (hydroxypropylcellulose) (HPC) 104 % of control | dose: 100.0 mg/kg/injection, schedule: Q01DX001 (ip), vehicle: Klucel (hydroxypropylcellulose) (HPC) 100 % of control | dose: 100.0 mg/kg/injection, schedule: Q01DX001 (ip), vehicle: saline with Tween-80 100 % of control

O=C(O)CNC(=O)c1ccc([N+](=O)[O-])cc1
inactive: [3] 90 % of control | [4] 90 % of control | [7] 86 % of control

CCSC(=O)N1c2ccc(C)cc2C=CC1C#N (stereo not drawn)
inactive: dose: 62.5 mg/kg/injection, schedule: Q01DX001 (ip), vehicle: saline with Tween-80 113 % of control | dose: 125.0 mg/kg/injection, schedule: Q01DX001 (ip), vehicle: saline with Tween-80 104 % of control | dose: 250.0 mg/kg/injection, schedule: Q01DX001 (ip), vehicle: saline with Tween-80 122 % of control

NC(=S)Nc1cccc(Cl)c1
inactive: dose: 25.0 mg/kg/injection, schedule: Q04DX003 (ip), vehicle: Klucel (hydroxypropylcellulose) (HPC) 118 % of control | dose: 50.0 mg/kg/injection, schedule: Q04DX003 (ip), vehicle: Klucel (hydroxypropylcellulose) (HPC) 104 % of control | [1] 104 % of control

CC(C)CCCCc1c[nH]c(=O)[nH]c1=O
inactive: [5] 100 % of control | [6] 100 % of control | [8] 100 % of control

O=C(O)c1cccc(S(=O)(=O)N(CCO)CCO)c1
inactive: [9] 100 % of control | [5] 90 % of control | [6] 95 % of control

CCCCN1CCC2(CC1)COCc1ccccc12
inactive: dose: 12.5 mg/kg/injection, schedule: Q04DX003 (ip), vehicle: saline with Tween-80 104 % of control | dose: 25.0 mg/kg/injection, schedule: Q04DX003 (ip), vehicle: saline with Tween-80 98 % of control | [9] 95 % of control
